From ChEMBL document CHEMBL4616632, “Discovery of Cyclic Boronic Acid QPX7728, an Ultrabroad-Spectrum Inhibitor of Serine and Metallo-β-lactamases” (J Med Chem, 2020)

What was measured:
Escherichia coli [1] = assay: Inhibition of Escherichia coli EC302 TEM-10 assessed as minimum concentration of compound needed to reduce the MIC of aztreonam to 4 ug/ml
Enterobacter cloacae = assay: Inhibition of Enterobacter cloacae ECL1002 AmpC assessed as minimum concentration of compound needed to reduce the MIC of aztreonam to 4 ug/ml
Escherichia coli [2] = assay: Inhibition of Escherichia coli KP308 SHV-5 assessed as minimum concentration of compound required to reduce the MIC of aztreonam to 4 ug/ml
Klebsiella pneumoniae [3] = assay: Inhibition of Klebsiella pneumoniae KP1054 VIM-1 assessed as minimum concentration of compound required to reduce the MIC of biapenem to 1 ug/ml
Klebsiella pneumoniae [4] = assay: Inhibition of Klebsiella pneumoniae KP1009 CTX-M-15 assessed as minimum concentration of compound required to reduce the MIC of aztreonam to 4 ug/ml
Klebsiella pneumoniae [5] = assay: Inhibition of Klebsiella pneumoniae KP1081 NDM-1 assessed as minimum concentration of compound required to reduce the MIC of biapenem to 1 ug/ml
[6] = biological target: Beta-lactamase (Klebsiella pneumoniae) (UniProt Q93LQ9); assay: Inhibition of Klebsiella pneumoniae KP1004 KPC-2 assessed as minimum concentration of compound needed to reduce the MIC of aztreonam to 4 ug/ml
Chain of Beta-lactamase (Klebsiella pneumoniae) (Q93LQ9 as listed by the source): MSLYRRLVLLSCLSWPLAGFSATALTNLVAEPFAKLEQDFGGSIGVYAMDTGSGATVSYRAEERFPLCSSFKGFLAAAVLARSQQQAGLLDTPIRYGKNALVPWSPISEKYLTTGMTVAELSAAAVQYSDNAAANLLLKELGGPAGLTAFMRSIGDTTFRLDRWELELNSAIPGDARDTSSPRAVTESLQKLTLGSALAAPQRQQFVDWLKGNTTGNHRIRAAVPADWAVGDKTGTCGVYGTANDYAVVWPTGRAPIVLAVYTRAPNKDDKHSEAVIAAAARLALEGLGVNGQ

Klebsiella pneumoniae [7] = assay: Inhibition of Klebsiella pneumoniae KP1160 IMP-26 assessed as minimum concentration of compound needed to reduce the MIC of meropenem to 1 ug/ml
Pseudomonas aeruginosa = assay: Inhibition of Pseudomonas aeruginosa PAM 2035 AmpC assessed as minimum concentration of compound needed to reduce the MIC of aztreonam to 4 ug/ml
Acinetobacter baumannii = assay: Inhibition of Acinetobacter baumannii AB1053 OXA-72 assessed as minimum concentration of compound needed to reduce the MIC of meropenem to 8 ug/ml
[8] = biological target: Beta-lactamase OXA-23 (Acinetobacter baumannii) (UniProt Q9L4P2); assay: Inhibition of Acinetobacter baumannii AB1054 OXA-23 assessed as minimum concentration of compound needed to reduce the MIC of meropenem to 8 ug/ml
Chain of Beta-lactamase OXA-23 (Acinetobacter baumannii) (Q9L4P2 whole entry): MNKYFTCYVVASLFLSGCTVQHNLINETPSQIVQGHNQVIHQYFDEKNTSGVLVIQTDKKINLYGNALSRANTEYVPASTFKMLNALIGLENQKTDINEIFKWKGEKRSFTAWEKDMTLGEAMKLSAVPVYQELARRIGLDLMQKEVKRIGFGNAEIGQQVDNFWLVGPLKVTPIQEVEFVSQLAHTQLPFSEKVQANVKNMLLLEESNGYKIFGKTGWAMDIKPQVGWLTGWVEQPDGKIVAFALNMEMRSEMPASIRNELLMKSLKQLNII

Escherichia coli [9] = assay: Inhibition of Escherichia coli ECM6619 TEM-10 assessed as minimum concentration of compound needed to reduce the MIC of aztreonam to 4 ug/ml
Escherichia coli [10] = assay: Inhibition of Escherichia coli ECM6625 SHV-5 assessed as minimum concentration of compound needed to reduce the MIC of aztreonam to 4 ug/ml

Row | MEC (Escherichia coli [1]) | MEC (Enterobacter cloacae) | MEC (Escherichia coli [2]) | MEC (Klebsiella pneumoniae [3]) | MEC (Klebsiella pneumoniae [4]) | MEC (Klebsiella pneumoniae [5]) | MEC [6] | MEC (Klebsiella pneumoniae [7]) | MEC (Pseudomonas aeruginosa) | MEC (Acinetobacter baumannii) | MEC [8] | MEC (Escherichia coli [9]) | MEC (Escherichia coli [10]) | Structure (SMILES)
1 | > 20 µg/mL | > 20 µg/mL | 10 µg/mL | 2.5 µg/mL | > 20 µg/mL | 0.3 µg/mL | > 20 µg/mL | – | – | – | – | – | – | O=C(O)c1cccc2c1OB(O)[C@@H](Sc1nccs1)C2
2 | 1.25 µg/mL | 0.3 µg/mL | 1.25 µg/mL | > 20 µg/mL | 1.25 µg/mL | 5 µg/mL | 0.16 µg/mL | 2.5 µg/mL | 5 µg/mL | 2.5 µg/mL | 5 µg/mL | 1.25 µg/mL | 1.25 µg/mL | COc1ccc2c(c1C(=O)O)OB(O)C(F)=C2
3 | > 20 µg/mL | > 20 µg/mL | > 20 µg/mL | 20 µg/mL | > 20 µg/mL | 10 µg/mL | > 20 µg/mL | – | – | – | – | – | – | O=C(O)c1cccc2c1OB(O)[C@@H](Sc1ncccn1)C2
4 | 5 µg/mL | > 20 µg/mL | 5 µg/mL | 0.3 µg/mL | 20 µg/mL | 2.5 µg/mL | 20 µg/mL | 2.5 µg/mL | > 20 µg/mL | – | – | – | – | O=C(O)c1c(OCc2nncs2)ccc2c1OB(O)[C@@H](Sc1nncs1)C2
5 | 20 µg/mL | > 20 µg/mL | 10 µg/mL | 0.16 µg/mL | > 20 µg/mL | 1.25 µg/mL | > 20 µg/mL | 0.3 µg/mL | 20 µg/mL | – | – | – | – | O=C(O)c1c(OCC2CC2)ccc2c1OB(O)[C@@H](Sc1nncs1)C2
6 | – | 0.16 µg/mL | – | 5 µg/mL | 0.6 µg/mL | 0.6 µg/mL | 0.16 µg/mL | > 20 µg/mL | 0.6 µg/mL | 2.5 µg/mL | 2.5 µg/mL | 0.08 µg/mL | 0.6 µg/mL | O=C(O)c1c(F)ccc2c1OB(O)CC2
7 | > 20 µg/mL | > 20 µg/mL | > 20 µg/mL | < 0.3 µg/mL | > 20 µg/mL | < 0.3 µg/mL | > 20 µg/mL | – | – | – | – | – | – | Nc1nnc(S[C@H]2Cc3cccc(C(=O)O)c3OB2O)[nH]1
8 | 20 µg/mL | > 20 µg/mL | 10 µg/mL | 2.5 µg/mL | > 20 µg/mL | 2.5 µg/mL | 20 µg/mL | > 20 µg/mL | > 20 µg/mL | – | – | – | – | N#CCOc1ccc2c(c1C(=O)O)OB(O)[C@@H](Sc1nncs1)C2
9 | 20 µg/mL | > 20 µg/mL | 5 µg/mL | 0.16 µg/mL | 20 µg/mL | 0.6 µg/mL | 5 µg/mL | 2.5 µg/mL | 20 µg/mL | – | – | – | – | O=C(O)c1c(OCCF)ccc2c1OB(O)[C@@H](Sc1nncs1)C2
10 | 1.25 µg/mL | 2.5 µg/mL | 1.25 µg/mL | > 20 µg/mL | 1.25 µg/mL | 5 µg/mL | 0.3 µg/mL | > 20 µg/mL | 5 µg/mL | 5 µg/mL | 10 µg/mL | 1.25 µg/mL | 1.25 µg/mL | O=C(O)c1c(F)ccc2c1OB(O)[C@H]1C[C@@H]21
11 | > 20 µg/mL | 20 µg/mL | > 20 µg/mL | > 20 µg/mL | > 20 µg/mL | > 20 µg/mL | 10 µg/mL | > 20 µg/mL | > 20 µg/mL | > 20 µg/mL | > 20 µg/mL | > 20 µg/mL | > 20 µg/mL | COc1ccc2c(c1C(=O)O)OB(O)C(CO)C2 (stereo unspecified)
12 | > 20 µg/mL | > 20 µg/mL | > 20 µg/mL | 1.25 µg/mL | > 20 µg/mL | 1.25 µg/mL | 5 µg/mL | – | – | – | – | – | – | NC(=O)CCS[C@H]1Cc2cccc(C(=O)O)c2OB1O
13 | > 20 µg/mL | > 20 µg/mL | > 20 µg/mL | 1.25 µg/mL | > 20 µg/mL | 2.5 µg/mL | > 20 µg/mL | – | – | – | – | – | – | O=C(O)c1cccc2c1OB(O)[C@@H](Sc1cccnc1)C2
14 | > 20 µg/mL | > 20 µg/mL | 10 µg/mL | 0.16 µg/mL | 20 µg/mL | 0.6 µg/mL | 20 µg/mL | 1.25 µg/mL | > 20 µg/mL | – | – | – | – | COCCOc1ccc2c(c1C(=O)O)OB(O)[C@@H](Sc1nncs1)C2
15 | > 10 µg/mL | > 10 µg/mL | 5 µg/mL | 0.16 µg/mL | > 10 µg/mL | 0.3 µg/mL | 10 µg/mL | – | – | – | – | – | – | Nc1nnc(S[C@H]2Cc3cccc(C(=O)O)c3OB2O)s1
16 | > 20 µg/mL | > 20 µg/mL | > 20 µg/mL | 20 µg/mL | > 20 µg/mL | > 20 µg/mL | > 20 µg/mL | > 20 µg/mL | > 20 µg/mL | – | – | – | – | O=C(O)c1c(OC2COC2)ccc2c1OB(O)[C@@H](Sc1nncs1)C2
17 | > 20 µg/mL | > 20 µg/mL | 5 µg/mL | 0.6 µg/mL | > 20 µg/mL | 0.3 µg/mL | > 20 µg/mL | – | – | – | – | – | – | O=C(O)c1cccc2c1OB(O)[C@@H](Sc1c[nH]nn1)C2

Row | MEC (Escherichia coli [1]) | MEC (Enterobacter cloacae) | MEC (Escherichia coli [2]) | MEC (Klebsiella pneumoniae [3]) | MEC (Klebsiella pneumoniae [4]) | MEC (Klebsiella pneumoniae [5]) | MEC [6] | MEC (Klebsiella pneumoniae [7]) | MEC (Pseudomonas aeruginosa) | MEC (Acinetobacter baumannii) | MEC [8] | MEC (Escherichia coli [9]) | MEC (Escherichia coli [10]) | Structure (SMILES)
18 | > 40 µg/mL | > 40 µg/mL | > 40 µg/mL | 2.5 µg/mL | 5 µg/mL | < 0.3 µg/mL | > 40 µg/mL | – | – | – | – | – | – | O=C(O)c1cccc2c1OB(O)[C@@H](Sc1nnc[nH]1)C2
19 | – | 5 µg/mL | – | 10 µg/mL | 20 µg/mL | 1.25 µg/mL | 0.6 µg/mL | > 20 µg/mL | 0.6 µg/mL | > 20 µg/mL | 20 µg/mL | 10 µg/mL | 20 µg/mL | O=C(O)c1cccc2c1OB(O)CC2
20 | 5 µg/mL | 5 µg/mL | 0.3 µg/mL | 1.25 µg/mL | 10 µg/mL | 0.6 µg/mL | 2.5 µg/mL | 20 µg/mL | 20 µg/mL | – | – | – | – | O=C(O)c1c(F)ccc2c1OB(O)[C@@H](Sc1nncs1)C2
21 | > 20 µg/mL | > 20 µg/mL | > 20 µg/mL | < 0.3 µg/mL | > 20 µg/mL | < 0.3 µg/mL | > 20 µg/mL | – | – | – | – | – | – | Cn1cnnc1S[C@H]1Cc2cccc(C(=O)O)c2OB1O
22 | > 20 µg/mL | > 20 µg/mL | > 20 µg/mL | 0.3 µg/mL | > 20 µg/mL | 1.25 µg/mL | 10 µg/mL | 1.25 µg/mL | 20 µg/mL | – | – | – | – | Nc1nnc(S[C@H]2Cc3ccc(OCC(F)F)c(C(=O)O)c3OB2O)s1
23 | – | 1.25 µg/mL | – | 20 µg/mL | 2.5 µg/mL | 1.25 µg/mL | 0.16 µg/mL | > 20 µg/mL | 0.3 µg/mL | 1.25 µg/mL | 2.5 µg/mL | 0.08 µg/mL | 5 µg/mL | O=C(O)c1nccc2c1OB(O)CC2
24 | > 20 µg/mL | 2.5 µg/mL | > 20 µg/mL | 0.6 µg/mL | > 20 µg/mL | 0.6 µg/mL | > 20 µg/mL | – | – | – | – | – | – | O=C(O)c1cccc2c1OB(O)[C@@H](OC1CNC1)C2
25 | > 20 µg/mL | > 20 µg/mL | 10 µg/mL | 1.25 µg/mL | > 20 µg/mL | 2.5 µg/mL | 20 µg/mL | 0.6 µg/mL | 10 µg/mL | – | – | – | – | CSCCOc1ccc2c(c1C(=O)O)OB(O)[C@@H](Sc1nncs1)C2
26 | > 10 µg/mL | > 10 µg/mL | > 10 µg/mL | > 20 µg/mL | > 10 µg/mL | > 20 µg/mL | > 10 µg/mL | – | – | – | – | – | – | O=C(O)c1cccc2c1OB(O)[C@@H](Sc1ccccn1)C2
27 | > 10 µg/mL | > 10 µg/mL | > 10 µg/mL | > 20 µg/mL | > 10 µg/mL | > 20 µg/mL | > 10 µg/mL | – | – | – | – | – | – | O=C(O)c1cccc2c1OB(O)[C@@H](Sc1ncc[nH]1)C2
28 | 20 µg/mL | > 20 µg/mL | 2.5 µg/mL | 1.25 µg/mL | 20 µg/mL | 1.25 µg/mL | 5 µg/mL | 20 µg/mL | 20 µg/mL | – | – | – | – | O=C(O)c1c(OC(F)F)ccc2c1OB(O)[C@@H](Sc1nncs1)C2
29 | > 20 µg/mL | 5 µg/mL | 10 µg/mL | 0.3 µg/mL | 10 µg/mL | 0.16 µg/mL | 5 µg/mL | – | – | – | – | – | – | Nn1cnnc1S[C@H]1Cc2cccc(C(=O)O)c2OB1O
30 | > 10 µg/mL | > 10 µg/mL | > 10 µg/mL | 2.5 µg/mL | > 10 µg/mL | 0.6 µg/mL | 5 µg/mL | – | – | – | – | – | – | NC(=O)CS[C@H]1Cc2cccc(C(=O)O)c2OB1O
31 | > 20 µg/mL | > 20 µg/mL | > 20 µg/mL | < 0.3 µg/mL | > 20 µg/mL | 0.6 µg/mL | 2.5 µg/mL | – | – | – | – | – | – | CS[C@H]1Cc2cccc(C(=O)O)c2OB1O
32 | 20 µg/mL | 2.5 µg/mL | 2.5 µg/mL | 0.16 µg/mL | 10 µg/mL | 0.6 µg/mL | 0.3 µg/mL | – | – | – | – | – | – | CO[C@H]1Cc2cccc(C(=O)O)c2OB1O
33 | > 20 µg/mL | > 20 µg/mL | > 20 µg/mL | > 20 µg/mL | > 20 µg/mL | > 20 µg/mL | > 20 µg/mL | – | – | – | – | – | – | N=C(N)S[C@H]1Cc2cccc(C(=O)O)c2OB1O
